Results on two compounds are retold here after patent publication US20120027857A1, “CONTROLLED RELEASE PHARMACEUTICAL CO[…]-[…]-VENLAFAXINE” (LEK PHARMACEUTICALS D.D., priority 2008, published 2012).

Data set [1] is described as follows: pH of 1% water solution. The format is physicochemical.
Data set [2] in a line: Dissolution test, USP apparatus 1, 900 ml water with 0.9% NaCl, 150 rpm, 37°C, HPLC. The format is physicochemical. The settings on record: compared to O-desmethyl-venlafaxine succinate from the tablet having the same composition. On the procedure:
Dissolution properties were evaluated by in vivo relevant dissolution test. USP apparatus 1 was used for testing. 900 ml of water with 0.9% NaCl is placed in the dissolution vessel, mixed with a paddle at 150 rpm and kept at 37±0.5° C. Samples were taken from the dissolution vessel at regular time intervals and the concentrations of O-desmethyl-venlafaxine were analyzed by HPLC.
Pharmaceutical compositions might be optionally placed for 60 minutes in 900 ml 0.01 M HCl before being placed in 900 ml water with 0.9% NaCl.

Regarding `CN(C)CC(c1ccc(O)cc1)C1(O)CCCCC1.O=C[C@H](O)[C@@H](O)[C@H](O)[C@H](O)C(=O)O` (stereo not drawn) [O-desmethyl-venlafaxine glucuronate], the “pH (1% water solution)” value in data set [1] came to 6.14.

As to `CN(C)CC(c1ccc(O)cc1)C1(O)CCCCC1.O=C(O)c1cc(=O)[nH]c(=O)[nH]1` (stereo not drawn) [O-desmethyl-venlafaxine orotate], in data set [2], the “dissolution of salt from matrix tablet” value is “much faster”. For the same compound, the “pH (1% water solution)” value in data set [1] is 3.3.
